Laboratory results: PubChem BioAssay AID330 (DTP/NCI, 2004)
Values joined by “and” are separate entries in the source; they are usually repeats but may differ in a detail not shown here. Identical values can stand only once. Toxic doses and inconclusive results are not listed.

Test system: P388 leukemia ip, CD2F1 mice, survival T/C
Experiment: NCI In Vivo Anticancer Drug Screen. Data for tumor model P388 Leukemia (intraperitoneal) in CD2F1 (CDF1) mice
Details: endpoint: median survival time, higher = longer survival
Method in brief: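 Mice carrying the transplanted tumor received test compound or vehicle. Survival was recorded in each group, and the value is the treated-group measurement divided by that of the vehicle-treated control group.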

[1] = dose: 50.0 mg/kg/injection, schedule: Q01DX009 (ip), vehicle: Klucel (hydroxypropylcellulose) (HPC)
[2] = dose: 100.0 mg/kg/injection, schedule: Q01DX009 (ip), vehicle: Klucel (hydroxypropylcellulose) (HPC)
[3] = dose: 200.0 mg/kg/injection, schedule: Q01DX009 (ip), vehicle: Klucel (hydroxypropylcellulose) (HPC)
[4] = dose: 25.0 mg/kg/injection, schedule: Q01DX009 (ip), vehicle: Klucel (hydroxypropylcellulose) (HPC)
[5] = dose: 50.0 mg/kg/injection, schedule: Q01DX009 (ip), vehicle: saline
[6] = dose: 100.0 mg/kg/injection, schedule: Q01DX009 (ip), vehicle: saline
[7] = dose: 200.0 mg/kg/injection, schedule: Q01DX009 (ip), vehicle: saline
[8] = dose: 6.25 mg/kg/injection, schedule: Q01DX009 (ip), vehicle: saline with Tween-80
[9] = dose: 12.5 mg/kg/injection, schedule: Q01DX009 (ip), vehicle: saline with Tween-80
[10] = dose: 25.0 mg/kg/injection, schedule: Q01DX009 (ip), vehicle: saline with Tween-80

CCCCC(NC(=O)C(C)N)C(=O)O (centres undefined)
T/C [1]: 98 % of control
T/C [2]: 98 % of control
T/C [3]: 95 % of control
T/C (dose: 400.0 mg/kg/injection, schedule: Q01DX009 (ip), vehicle: Klucel (hydroxypropylcellulose) (HPC)): 101 % of control

CCCCCCCC(=O)NN(Cn1c(=S)sc2ccccc21)Cn1c(=S)sc2ccccc21
T/C (dose: 50.0 mg/kg/injection, schedule: Q01DX005 (ip), vehicle: Klucel (hydroxypropylcellulose) (HPC)): 96 % of control
T/C (dose: 100.0 mg/kg/injection, schedule: Q01DX005 (ip), vehicle: Klucel (hydroxypropylcellulose) (HPC)): 88 % of control
T/C (dose: 200.0 mg/kg/injection, schedule: Q01DX005 (ip), vehicle: Klucel (hydroxypropylcellulose) (HPC)): 88 % of control

CCCCCCCCCCCCNC(=O)NCC(=O)OCC
T/C [4]: 91 % of control
T/C [1]: 100 % of control
T/C [2]: 103 % of control
T/C [3]: 89 % of control

c1ccc([C@H]2CN3CCSC3=N2)cc1
T/C (dose: 1.25 mg/kg/injection, schedule: Q01DX009 (ip), vehicle: saline): 101 % of control
T/C (dose: 2.5 mg/kg/injection, schedule: Q01DX009 (ip), vehicle: saline): 97 % of control
T/C (dose: 5.0 mg/kg/injection, schedule: Q01DX009 (ip), vehicle: saline): 101 % of control
T/C (dose: 6.9 mg/kg/injection, schedule: Q01DX005 (ip), vehicle: saline): 98 % of control
T/C (dose: 10.0 mg/kg/injection, schedule: Q01DX009 (ip), vehicle: saline): 99 % of control
T/C (dose: 11.5 mg/kg/injection, schedule: Q01DX001 (ip), vehicle: saline): 100 % of control and 109 % of control
T/C (dose: 11.5 mg/kg/injection, schedule: Q01DX005 (ip), vehicle: saline): 103 % of control
T/C (dose: 19.2 mg/kg/injection, schedule: Q01DX001 (ip), vehicle: saline): 99 % of control and 109 % of control
T/C (dose: 19.2 mg/kg/injection, schedule: Q01DX005 (ip), vehicle: saline): 105 % of control
T/C (dose: 20.0 mg/kg/injection, schedule: Q01DX009 (ip), vehicle: saline): 113 % of control
T/C (dose: 32.0 mg/kg/injection, schedule: Q01DX001 (ip), vehicle: saline): 99 % of control

COC1OC(COS(C)(=O)=O)C(O)C(O)C1OS(C)(=O)=O (centres undefined)
T/C [5]: 110 % of control
T/C [6]: 106 % of control
T/C [7]: 106 % of control

CC(=O)OC1N(C(C)=O)C(SC23CC4CC(CC(C4)C2)C3)C(C)=CC1(C)OC(C)=O (centres undefined)
T/C [1]: 111 % of control
T/C [2]: 110 % of control
T/C [3]: 105 % of control

CCOC(=O)SC(=S)OCC
T/C [8]: 108 % of control
T/C [9]: 114 % of control
T/C [10]: 100 % of control
T/C (dose: 50.0 mg/kg/injection, schedule: Q01DX009 (ip), vehicle: saline with Tween-80): 87 % of control

O=NN(CCCl)C(=O)NC1CCCCC1
T/C (dose: 1.0 mg/kg/injection, schedule: Q01DX009 (ip), vehicle: saline with Tween-80): 118 % of control
T/C (dose: 4.0 mg/kg/injection, schedule: Q01DX009 (ip), vehicle: saline with Tween-80): 168 % of control
T/C (dose: 7.2 mg/kg/injection, schedule: Q04DX003 (ip), vehicle: saline + alcohol): 204 % of control
T/C (dose: 8.0 mg/kg/injection, schedule: Q01DX009 (ip), vehicle: saline with Tween-80): 218 % of control and 240 % of control
T/C (dose: 12.0 mg/kg/injection, schedule: Q04DX003 (ip), vehicle: carboxymethylcellulose (CMC)): 154 % of control
T/C (dose: 12.0 mg/kg/injection, schedule: Q04DX003 (ip), vehicle: saline + alcohol): 339 % of control
T/C (dose: 16.0 mg/kg/injection, schedule: Q01DX009 (ip), vehicle: saline with Tween-80): 272 % of control
T/C (dose: 18.0 mg/kg/injection, schedule: Q04DX003 (ip), vehicle: carboxymethylcellulose (CMC)): 190 % of control and 191 % of control
T/C (dose: 20.0 mg/kg/injection, schedule: Q04DX003 (ip), vehicle: saline + alcohol): 412 % of control
T/C (dose: 27.0 mg/kg/injection, schedule: Q04DX003 (ip), vehicle: carboxymethylcellulose (CMC)): 227 % of control and 243 % of control
T/C (dose: 33.3 mg/kg/injection, schedule: Q04DX003 (ip), vehicle: saline + alcohol): 119 % of control
T/C (dose: 40.0 mg/kg/injection, schedule: Q04DX003 (ip), vehicle: carboxymethylcellulose (CMC)): 304 % of control and 538 % of control
T/C (dose: 64.0 mg/kg/injection, schedule: Q01DX001 (ip), vehicle: saline + alcohol): 250 % of control and 265 % of control
T/C (dose: 128.0 mg/kg/injection, schedule: Q01DX001 (ip), vehicle: saline + alcohol): 168 % of control

Cc1ccc(S(=O)(=O)N/N=c2\ccc3ccccc3n2C)cc1
T/C (dose: 100.0 mg/kg/injection, schedule: Q04DX002 (ip), vehicle: saline): 100 % of control
T/C (dose: 200.0 mg/kg/injection, schedule: Q04DX002 (ip), vehicle: saline): 99 % of control
T/C (dose: 400.0 mg/kg/injection, schedule: Q04DX002 (ip), vehicle: saline): 101 % of control

CO[C@@H]1[C@H](O)CC[C@]2(CO2)[C@H]1[C@@]1(C)O[C@@H]1CC=C(C)C
T/C (dose: 3.13 mg/kg/injection, schedule: Q01DX009 (ip), vehicle: saline with Tween-80): 99 % of control and 120 % of control
T/C [8]: 99 % of control and 116 % of control
T/C [9]: 99 % of control and 106 % of control
T/C [10]: 108 % of control and 120 % of control
T/C (dose: 33.3 mg/kg/injection, schedule: Q01DX009 (ip), vehicle: saline with Tween-80): 99 % of control

O=C1C2(Cl)C3CCC4C5CCC3C1(Cl)C5(Cl)C42Cl (centres undefined)
T/C (dose: 100.0 mg/kg/injection, schedule: Q04DX002 (ip), vehicle: saline with Tween-80): 107 % of control
T/C (dose: 200.0 mg/kg/injection, schedule: Q04DX002 (ip), vehicle: saline with Tween-80): 100 % of control

O=S1(=O)CC2(N3CCOCC3)CCCCC21 (centres undefined)
T/C (dose: 100.0 mg/kg/injection, schedule: Q04DX003 (ip), vehicle: saline with Tween-80): 95 % of control
T/C (dose: 200.0 mg/kg/injection, schedule: Q04DX003 (ip), vehicle: saline with Tween-80): 100 % of control
T/C (dose: 400.0 mg/kg/injection, schedule: Q04DX003 (ip), vehicle: saline with Tween-80): 95 % of control

CC(C)=CCCc1ccc2c(c1)C(=O)c1cc3c(cc1C2=O)OCO3
T/C (dose: 3.75 mg/kg/injection, schedule: Q01DX005 (ip), vehicle: saline with Tween-80): 101 % of control
T/C (dose: 7.5 mg/kg/injection, schedule: Q01DX005 (ip), vehicle: saline with Tween-80): 91 % of control
T/C (dose: 15.0 mg/kg/injection, schedule: Q01DX005 (ip), vehicle: saline with Tween-80): 98 % of control and 104 % of control
T/C (dose: 60.0 mg/kg/injection, schedule: Q01DX005 (ip), vehicle: saline with Tween-80): 87 % of control

COP(=O)(Cc1ccccc1O)OC
T/C [5]: 97 % of control
T/C [6]: 99 % of control
T/C [7]: 96 % of control

COc1ccc(C(O)c2ccc(OC)c(OC)c2)cc1OC
T/C (dose: 25.0 mg/kg/injection, schedule: Q01DX009 (ip), vehicle: other): 100 % of control
T/C (dose: 50.0 mg/kg/injection, schedule: Q01DX009 (ip), vehicle: other): 100 % of control
T/C (dose: 100.0 mg/kg/injection, schedule: Q01DX009 (ip), vehicle: other): 96 % of control
T/C (dose: 200.0 mg/kg/injection, schedule: Q01DX009 (ip), vehicle: other): 89 % of control
T/C (dose: 400.0 mg/kg/injection, schedule: Q01DX009 (ip), vehicle: other): 89 % of control

CCOC(=O)/C=C/c1c(Cl)n(C)c(=O)n(C)c1=O
T/C (dose: 7.5 mg/kg/injection, schedule: Q01DX005 (ip), vehicle: Klucel (hydroxypropylcellulose) (HPC)): 102 % of control
T/C (dose: 15.0 mg/kg/injection, schedule: Q01DX005 (ip), vehicle: Klucel (hydroxypropylcellulose) (HPC)): 100 % of control
T/C (dose: 30.0 mg/kg/injection, schedule: Q01DX005 (ip), vehicle: Klucel (hydroxypropylcellulose) (HPC)): 100 % of control

Cc1coc2c1[C@H]1OC(=O)C3=CCC[C@H](C2)[C@@]31C
T/C (dose: 7.5 mg/kg/injection, schedule: Q01DX009 (ip), vehicle: saline with Tween-80): 100 % of control
T/C (dose: 15.0 mg/kg/injection, schedule: Q01DX009 (ip), vehicle: saline with Tween-80): 100 % of control
T/C (dose: 30.0 mg/kg/injection, schedule: Q01DX009 (ip), vehicle: saline with Tween-80): 101 % of control
T/C (dose: 60.0 mg/kg/injection, schedule: Q01DX009 (ip), vehicle: saline with Tween-80): 98 % of control

CCCCCCCCSc1nc2ccc(N=Cc3ccccc3O)cc2s1
T/C (dose: 12.5 mg/kg/injection, schedule: Q01DX009 (ip), vehicle: Klucel (hydroxypropylcellulose) (HPC)): 109 % of control
T/C [4]: 94 % of control
T/C [1]: 90 % of control and 92 % of control
T/C [3]: 91 % of control

CC1(c2cc(Cl)c(Cl)cc2Cl)NC(=O)NC1=O (centres undefined)
T/C (dose: 100.0 mg/kg/injection, schedule: Q01DX001 (ip), vehicle: saline with Tween-80): 103 % of control
T/C (dose: 200.0 mg/kg/injection, schedule: Q01DX001 (ip), vehicle: saline with Tween-80): 112 % of control
